Source: PubChem BioAssay (NCI)
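Tested at 5 concentrations; 48 h exposure; 96-well plates; endpoints linearly interpolated, else capped at highest concentration. Here, GI50 denotes the concentration required for 50% inhibition of growth. TGI: concentration producing complete growth inhibition.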

Experiments:
Experiment in all cases: NCI tumour cell line growth inhibition, 48 h
[1] = tested on: SK-MEL-2 melanoma
[2] = tested on: NCI-H23 lung
[3] = tested on: OVCAR-5 ovarian
[4] = tested on: HCT-15 colon
[5] = tested on: SF-539 CNS
[6] = tested on: UO-31 renal
[7] = tested on: HT29 colon
[8] = tested on: MALME-3M melanoma
[9] = tested on: SK-MEL-5 melanoma
[10] = tested on: HS 578T breast
[11] = tested on: SF-295 CNS
[12] = tested on: HCT-116 colon
[13] = tested on: RXF 393 renal
[14] = tested on: HOP-62 NSCLC
[15] = tested on: COLO 205 colon
[16] = tested on: KM12 colon
[17] = tested on: SK-MEL-28 melanoma
[18] = tested on: NCI-H460 lung
[19] = tested on: SNB-75 CNS
[20] = tested on: A498 renal
[21] = tested on: SK-OV-3 ovarian
[22] = tested on: SF-268 CNS
[23] = tested on: CCRF-CEM leukemia
[24] = tested on: MCF7 breast
[25] = tested on: 786-0 renal
[26] = tested on: BT-549 breast
[27] = tested on: ACHN renal
[28] = tested on: NCI-H522 lung
[29] = tested on: U251 CNS
[30] = tested on: NCI-H226 lung
[31] = tested on: HL-60(TB) leukemia
[32] = tested on: HCC-2998 colon
[33] = tested on: K-562 leukemia
[34] = tested on: MDA-MB-435
[35] = tested on: UACC-257 melanoma
[36] = tested on: DU-145 prostate
[37] = tested on: OVCAR-4 ovarian
[38] = tested on: SR leukemia
[39] = tested on: SN12C renal
[40] = tested on: T-47D breast
[41] = tested on: IGROV1 ovarian
[42] = tested on: A549 NSCLC
[43] = tested on: RPMI-8226 leukemia
[44] = tested on: LOX IMVI melanoma
[45] = tested on: TK-10 renal
[46] = tested on: PC-3 prostate
[47] = tested on: SW-620 colon
[48] = tested on: M14 melanoma
[49] = tested on: OVCAR-3 ovarian
[50] = tested on: OVCAR-8 ovarian
[51] = tested on: MDA-MB-231 breast
[52] = tested on: EKVX NSCLC
[53] = tested on: SNB-19 CNS
[54] = tested on: MOLT-4 leukemia
[55] = tested on: HOP-92 NSCLC
[56] = tested on: UACC-62 melanoma

Structure (SMILES): CC(=O)c1cc2c(N)c(C(=O)Nc3cccc4ccccc34)sc2nc1C
- GI50 [1]: 4.22 µM
- TGI [1]: > 50 µM
- GI50 [2]: 2.14 µM
- TGI [2]: > 50 µM
- GI50 [3]: 2.6 µM
- TGI [3]: > 50 µM
- GI50 [4]: 1.71 µM
- TGI [4]: > 50 µM
- GI50 [5]: 1.16 µM
- TGI [5]: 3.99 µM
- GI50 [6]: 4.27 µM
- TGI [6]: > 50 µM
- GI50 [7]: 1.74 µM
- TGI [7]: > 50 µM
- GI50 [8]: 6.92 µM
- TGI [8]: > 50 µM
- GI50 [9]: 1.09 µM
- TGI [9]: > 50 µM
- GI50 [10]: 1.82 µM
- TGI [10]: > 50 µM
- GI50 [11]: 0.922 µM
- TGI [11]: 3.59 µM
- GI50 [12]: 2.23 µM
- TGI [12]: > 50 µM
- GI50 [13]: 0.891 µM
- TGI [13]: 3.46 µM
- GI50 [14]: 1.67 µM
- TGI [14]: 27.4 µM
- GI50 [15]: 1.12 µM
- TGI [15]: 3.2 µM
- GI50 [16]: 1.89 µM
- TGI [16]: > 50 µM
- GI50 [17]: 4.07 µM
- TGI [17]: > 50 µM
- GI50 [18]: 1.61 µM
- TGI [18]: > 50 µM
- GI50 [19]: 1.98 µM
- TGI [19]: 35.5 µM
- GI50 [20]: 0.34 µM
- TGI [20]: > 50 µM
- GI50 [21]: 0.512 µM
- TGI [21]: > 50 µM
- GI50 [22]: 4.34 µM
- TGI [22]: > 50 µM
- GI50 [23]: 2.02 µM
- TGI [23]: > 50 µM
- GI50 [24]: 1.42 µM
- TGI [24]: > 50 µM
- GI50 [25]: 1.87 µM
- TGI [25]: > 50 µM
- GI50 [26]: 4.03 µM
- TGI [26]: > 50 µM
- GI50 [27]: 3.61 µM
- TGI [27]: > 50 µM
- GI50 [28]: 1.2 µM
- TGI [28]: > 50 µM
- GI50 [29]: 1.92 µM
- TGI [29]: > 50 µM
- GI50 [30]: 21.6 µM
- TGI [30]: > 50 µM
- GI50 [31]: 1.36 µM
- TGI [31]: 4.35 µM
- GI50 [32]: 2.29 µM
- TGI [32]: > 50 µM
- GI50 [33]: 1.23 µM
- TGI [33]: > 50 µM
- GI50 [34]: 0.178 µM
- TGI [34]: 1.08 µM
- GI50 [35]: 18 µM
- TGI [35]: > 50 µM
- GI50 [36]: 1.71 µM
- TGI [36]: 36.1 µM
- GI50 [37]: 6.06 µM
- TGI [37]: > 50 µM
- GI50 [38]: 1.21 µM
- TGI [38]: > 50 µM
- GI50 [39]: 3.44 µM
- TGI [39]: > 50 µM
- GI50 [40]: 1.6 µM
- TGI [40]: > 50 µM
- GI50 [41]: 2.92 µM
- TGI [41]: > 50 µM
- GI50 [42]: 0.977 µM
- TGI [42]: > 50 µM
- GI50 [43]: 1.76 µM
- TGI [43]: > 50 µM
- GI50 [44]: 2.58 µM
- TGI [44]: > 50 µM
- GI50 [45]: 3.77 µM
- TGI [45]: > 50 µM
- GI50 [46]: 1.75 µM
- TGI [46]: > 50 µM
- GI50 [47]: 1.55 µM
- TGI [47]: > 50 µM
- GI50 [48]: 0.745 µM
- TGI [48]: 3.21 µM
- GI50 [49]: 1.67 µM
- TGI [49]: 11.4 µM
- GI50 [50]: 2.14 µM
- TGI [50]: > 50 µM
- GI50 [51]: 3.41 µM
- TGI [51]: > 50 µM
- GI50 [52]: 2.9 µM
- TGI [52]: > 50 µM
- GI50 [53]: 1.78 µM
- TGI [53]: > 50 µM
- GI50 [54]: 2.19 µM
- TGI [54]: > 50 µM
- GI50 [55]: 6.78 µM
- TGI [55]: > 50 µM
- GI50 [56]: 1.12 µM
- TGI [56]: > 50 µM
